CC(C)(C)OC(=O)N[C@@H](CCCN=C(N)N[N+](=O)[O-])C(=O)O
solubility (mole fraction)
Conditions | 283.15 K | 288.15 K | 293.15 K | 298.15 K | 303.15 K | 308.15 K | 313.15 K | 318.15 K | 323.15 K
in DMF | 0.164 | 0.185 | 0.211 | 0.246 | 0.29 | 0.346 | 0.415 | 0.505 | 0.62
in acetonitrile | 0.0012 | 0.00144 | 0.00168 | 0.00193 | 0.00222 | 0.00262 | 0.00324 | 0.00392 | 0.00491
in ethanol | 0.015 | 0.0188 | 0.0234 | 0.0282 | 0.0327 | 0.0391 | 0.0469 | 0.0563 | 0.0666
in ethyl acetate | 0.000705 | 0.000846 | 0.000955 | 0.00104 | 0.00114 | 0.0013 | 0.00147 | 0.00161 | 0.00187
in isobutanol | 0.00231 | 0.00296 | 0.00394 | 0.00499 | 0.00618 | 0.00799 | 0.00954 | 0.0112 | 0.0143
in isopropanol | 0.00489 | 0.0067 | 0.00844 | 0.0102 | 0.0127 | 0.0152 | 0.0184 | 0.0224 | 0.0267
in methanol | 0.042 | 0.0507 | 0.0601 | 0.0692 | 0.0752 | 0.0824 | 0.0908 | 0.0976 | 0.111
in n-butanol | 0.00377 | 0.00498 | 0.00583 | 0.00707 | 0.00842 | 0.00996 | 0.0121 | 0.0142 | 0.0172
in n-pentanol | 0.00254 | 0.00351 | 0.0042 | 0.00489 | 0.00595 | 0.00735 | 0.00886 | 0.0106 | 0.013
in n-propanol | 0.00543 | 0.00744 | 0.00919 | 0.0114 | 0.0132 | 0.0161 | 0.0195 | 0.0236 | 0.0285
in sec-butanol | 0.00398 | 0.00546 | 0.00729 | 0.00896 | 0.0113 | 0.0138 | 0.0162 | 0.0192 | 0.0222
in water | 0.000283 | 0.000334 | 0.000356 | 0.000404 | 0.000471 | 0.000522 | 0.000643 | 0.000799 | 0.000986
